Assay results as given in patent US6461997B1, “Triazole sulfones having herbicidal activity” (Monsanto Technology LLC, priority 1999, dated 2002).

system: ABUTH (velvetleaf); assay: Pre-emergence herbicidal activity, warm season; format: in vivo, Abutilon theophrasti; conditions: GR80 = lowest tested rate (300, 100, 30, 10 g/ha) with 80% or greater inhibition; approx. 14 days after treating; 30/21° C.
Description: (§1) Tables 5 to 8 summarize results of tests conducted as described below to determine the pre-emergence herbicidal activity, in the form of a GR80 value, of illustrative compounds of this invention. […] Compounds of the invention were typically applied at rates of 300, 100, 30, and 10 g/ha. Where herbicidal activity was evident but 80% inhibition was not achieved at the highest rate tested, an asterisk (*) is shown in the following tables.
(§2) The pre-emergence tests were conducted by the following procedure. Topsoil was sieved to pass through a 1.27 cm screen. Fertilizer was added to the topsoil and the mixture was then sterilized by heating. The topsoil mixture was placed in a pot and compacted to a depth of 1.0 to 1.25 cm from the top of the pot. Seeds of each of several monocotyledonous and dicotyledonous annual plant species were placed on top of the soil. Additional soil was subsequently placed over the seeds to level-fill the pot. A known amount of each test compound dissolved or suspended in an appropriate organic solvent was diluted with a 50:50 mix of acetone and water and applied to the surface of the soil. After treatment the plants were placed in a greenhouse where they received 0.64 cm of overhead irrigation. All subsequent watering consisted of a light overhead mist and/or subirrigation as needed for germination and growth. Tables 5 and 6 below relate to warm season plant species which were placed after pre-emergence treatment in a greenhouse with a 30/21° C. day/night temperature regime. Tables 7 and 8 below relates to cool season plant species placed after pre-emergence treatment in a greenhouse or growth chamber with an 18/13° C. day/night temperature regime.
(§3) Approximately 14 days after planting and treating, the plants were observed and herbicidal efficacy recorded as percent inhibition by comparison with untreated plants.
(§4) The plant species usually regarded as weeds which were utilized in the tests are identified in the tables below according to the following legend, in which “d” indicates a dicotyledonous species and “m” a monocotyledonous species. All monocotyledonous species included in the tests herein are grasses.

Row | SMILES | Pre-emergence activity (GR80) ABUTH [g/ha]
1 | CCN(CC)C(=S)n1cnc(S(=O)(=O)C(F)(F)Cl)n1 [Example 94] | 100

system: SOLNI (black nightshade); assay: Pre-emergence herbicidal activity, warm season; format: in vivo, Solanum nigrum; conditions: GR80 = lowest tested rate (300, 100, 30, 10 g/ha) with 80% or greater inhibition; approx. 14 days after treating; 30/21° C.
Procedure, shortened: (§5)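 Seeds sown in sterilised fertilised topsoil received surface-applied compound in 50:50 acetone/water, typically at 300, 100, 30 and 10 g/ha, then greenhouse-grown at 30/21° C (warm-season species) or 18/13° C (cool-season species). Percent inhibition versus untreated plants was scored at about 14 days, giving GR80; an asterisk marks activity short of 80% at the top rate.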

Row | SMILES | Pre-emergence activity (GR80) SOLNI [g/ha]
2 | CCN(CC)C(=S)n1cnc(S(=O)(=O)C(F)(F)Cl)n1 [Example 94] | 100

system: AMARE (redroot pigweed); assay: Pre-emergence herbicidal activity, warm season; format: in vivo, Amaranthus retroflexus; conditions: GR80 = lowest tested rate (300, 100, 30, 10 g/ha) with 80% or greater inhibition; approx. 14 days after treating; 30/21° C.
Procedure, shortened: as §5

Row | SMILES | Pre-emergence activity (GR80) AMARE [g/ha]
3 | CCN(CC)C(=S)n1cnc(S(=O)(=O)C(F)(F)Cl)n1 [Example 94] | 10

system: DATST (jimsonweed); assay: Pre-emergence herbicidal activity, warm season; format: in vivo, Datura stramonium; conditions: GR80 = lowest tested rate (300, 100, 30, 10 g/ha) with 80% or greater inhibition; approx. 14 days after treating; 30/21° C.
Description: as §1, §2, §3, §4

Row | SMILES | Pre-emergence activity (GR80) DATST [g/ha]
4 | CCN(CC)C(=S)n1cnc(S(=O)(=O)C(F)(F)Cl)n1 [Example 94] | 300

system: CHEAL (common lambsquarters); assay: Pre-emergence herbicidal activity, warm season; format: in vivo, Chenopodium album; conditions: GR80 = lowest tested rate (300, 100, 30, 10 g/ha) with 80% or greater inhibition; approx. 14 days after treating; 30/21° C.
Procedure, shortened: as §5

Row | SMILES | Pre-emergence activity (GR80) CHEAL [g/ha]
5 | CCN(CC)C(=S)n1cnc(S(=O)(=O)C(F)(F)Cl)n1 [Example 94] | 30

system: CONAR (field bindweed); assay: Pre-emergence herbicidal activity, warm season; format: in vivo, Convolvulus arvensis; conditions: GR80 = lowest tested rate (300, 100, 30, 10 g/ha) with 80% or greater inhibition; approx. 14 days after treating; 30/21° C.
Description: as §1, §2, §3, §4

Row | SMILES | Pre-emergence activity (GR80) CONAR [g/ha]
6 | CCN(CC)C(=S)n1cnc(S(=O)(=O)C(F)(F)Cl)n1 [Example 94] | 100

system: POROL (common purslane); assay: Pre-emergence herbicidal activity, warm season; format: in vivo, Portulaca oleracea; conditions: GR80 = lowest tested rate (300, 100, 30, 10 g/ha) with 80% or greater inhibition; approx. 14 days after treating; 30/21° C.
Procedure, shortened: as §5

Row | SMILES | Pre-emergence activity (GR80) POROL [g/ha]
7 | CCN(CC)C(=S)n1cnc(S(=O)(=O)C(F)(F)Cl)n1 [Example 94] | 30

system: CIRAR (canada thistle (seedling)); assay: Pre-emergence herbicidal activity, warm season; format: in vivo, Cirsium arvense; conditions: GR80 = lowest tested rate (300, 100, 30, 10 g/ha) with 80% or greater inhibition; approx. 14 days after treating; 30/21° C.
Procedure, shortened: as §5

Row | SMILES | Pre-emergence activity (GR80) CIRAR [g/ha]
8 | CCN(CC)C(=S)n1cnc(S(=O)(=O)C(F)(F)Cl)n1 [Example 94] | 30

system: PANMI (wild proso millet); assay: Pre-emergence herbicidal activity, warm season; format: in vivo, Panicum miliaceum; conditions: GR80 = lowest tested rate (300, 100, 30, 10 g/ha) with 80% or greater inhibition; approx. 14 days after treating; 30/21° C.
Procedure, shortened: as §5

Row | SMILES | Pre-emergence activity (GR80) PANMI [g/ha]
9 | CCN(CC)C(=S)n1cnc(S(=O)(=O)C(F)(F)Cl)n1 [Example 94] | 100

system: SORHA (johnsongrass (seedling)); assay: Pre-emergence herbicidal activity, warm season; format: in vivo, Sorghum halepense; conditions: GR80 = lowest tested rate (300, 100, 30, 10 g/ha) with 80% or greater inhibition; approx. 14 days after treating; 30/21° C.
Procedure, shortened: (§6)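 GR80 values derive from percent inhibition relative to untreated plants, read roughly 14 days after sowing and pre-emergence soil-surface treatment (compound in 50:50 acetone/water; rates typically 10, 30, 100, 300 g/ha). Warm-season weeds grew at 30/21° C day/night, cool-season ones at 18/13° C; an asterisk marks activity without reaching 80% at the highest rate.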

Row | SMILES | Pre-emergence activity (GR80) SORHA [g/ha]
10 | CCN(CC)C(=S)n1cnc(S(=O)(=O)C(F)(F)Cl)n1 [Example 94] | 300

system: SETFA (giant foxtail); assay: Pre-emergence herbicidal activity, warm season; format: in vivo, Setaria faberi; conditions: GR80 = lowest tested rate (300, 100, 30, 10 g/ha) with 80% or greater inhibition; approx. 14 days after treating; 30/21° C.
Procedure, shortened: as §6

Row | SMILES | Pre-emergence activity (GR80) SETFA [g/ha]
11 | CCN(CC)C(=S)n1cnc(S(=O)(=O)C(F)(F)Cl)n1 [Example 94] | 100

system: SORVU (shattercane); assay: Pre-emergence herbicidal activity, warm season; format: in vivo, Sorghum vulgare; conditions: GR80 = lowest tested rate (300, 100, 30, 10 g/ha) with 80% or greater inhibition; approx. 14 days after treating; 30/21° C.
Procedure, shortened: as §6

Row | SMILES | Pre-emergence activity (GR80) SORVU [g/ha]
12 | CCN(CC)C(=S)n1cnc(S(=O)(=O)C(F)(F)Cl)n1 [Example 94] | 100

system: BRAPP (broadleaf signalgrass); assay: Pre-emergence herbicidal activity, warm season; format: in vivo, Brachiaria platyphylla; conditions: GR80 = lowest tested rate (300, 100, 30, 10 g/ha) with 80% or greater inhibition; approx. 14 days after treating; 30/21° C.
Procedure, shortened: as §6

Row | SMILES | Pre-emergence activity (GR80) BRAPP [g/ha]
13 | CCN(CC)C(=S)n1cnc(S(=O)(=O)C(F)(F)Cl)n1 [Example 94] | 10

system: DIGSA (large crabgrass); assay: Pre-emergence herbicidal activity, warm season; format: in vivo, Digitaria sanguinalis; conditions: GR80 = lowest tested rate (300, 100, 30, 10 g/ha) with 80% or greater inhibition; approx. 14 days after treating; 30/21° C.
Procedure, shortened: as §5

Row | SMILES | Pre-emergence activity (GR80) DIGSA [g/ha]
14 | CCN(CC)C(=S)n1cnc(S(=O)(=O)C(F)(F)Cl)n1 [Example 94] | 300

system: GALAP (catchweed bedstraw); assay: Pre-emergence herbicidal activity, cool season; format: in vivo, Galium aparine; conditions: lowest tested rate with 80% or greater inhibition; rates 300, 100, 30, 10 g/ha; about 14 days
Procedure, shortened: as §5

Row | SMILES | Pre-emergence activity GR80, GALAP
15 | CCN(CC)C(=S)n1cnc(S(=O)(=O)C(F)(F)Cl)n1 [Example 94] | [empty]

system: POLCO (wild buckwheat); assay: Pre-emergence herbicidal activity, cool season; format: in vivo, Polygonum convolvulus; conditions: lowest tested rate with 80% or greater inhibition; rates 300, 100, 30, 10 g/ha; about 14 days
Procedure, shortened: as §5

Row | SMILES | Pre-emergence activity GR80, POLCO [g/ha]
16 | CCN(CC)C(=S)n1cnc(S(=O)(=O)C(F)(F)Cl)n1 [Example 94] | 10

system: SINAR (wild mustard); assay: Pre-emergence herbicidal activity, cool season; format: in vivo, Sinapis arvensis; conditions: lowest tested rate with 80% or greater inhibition; rates 300, 100, 30, 10 g/ha; about 14 days
Procedure, shortened: as §5

Row | SMILES | Pre-emergence activity GR80, SINAR
17 | CCN(CC)C(=S)n1cnc(S(=O)(=O)C(F)(F)Cl)n1 [Example 94] | [empty]

system: VERPE (creeping speedwell); assay: Pre-emergence herbicidal activity, cool season; format: in vivo, Veronica persicaria; conditions: lowest tested rate with 80% or greater inhibition; rates 300, 100, 30, 10 g/ha; about 14 days
Procedure, shortened: as §5

Row | SMILES | Pre-emergence activity GR80, VERPE
18 | CCN(CC)C(=S)n1cnc(S(=O)(=O)C(F)(F)Cl)n1 [Example 94] | [empty]

system: SASKR (russian thistle); assay: Pre-emergence herbicidal activity, cool season; format: in vivo, Salsola kali; conditions: lowest tested rate with 80% or greater inhibition; rates 300, 100, 30, 10 g/ha; about 14 days
Procedure, shortened: as §5

Row | SMILES | Pre-emergence activity GR80, SASKR
19 | CCN(CC)C(=S)n1cnc(S(=O)(=O)C(F)(F)Cl)n1 [Example 94] | [empty]

system: STEME (common chickweed); assay: Pre-emergence herbicidal activity, cool season; format: in vivo, Stellaria media; conditions: lowest tested rate with 80% or greater inhibition; rates 300, 100, 30, 10 g/ha; about 14 days
Procedure, shortened: as §5

Row | SMILES | Pre-emergence activity GR80, STEME [g/ha]
20 | CCN(CC)C(=S)n1cnc(S(=O)(=O)C(F)(F)Cl)n1 [Example 94] | 300

system: LAMPU (purple deadnettle); assay: Pre-emergence herbicidal activity, cool season; format: in vivo, Lamium purpureum; conditions: lowest tested rate with 80% or greater inhibition; rates 300, 100, 30, 10 g/ha; about 14 days
Procedure, shortened: as §5

Row | SMILES | Pre-emergence activity GR80, LAMPU [g/ha]
21 | CCN(CC)C(=S)n1cnc(S(=O)(=O)C(F)(F)Cl)n1 [Example 94] | 300

system: ALOMY (blackgrass); assay: Pre-emergence herbicidal activity, cool season; format: in vivo, Alopecurus myosuroides; conditions: GR80 = lowest tested rate (300, 100, 30, 10 g/ha) with 80% or greater inhibition; approx. 14 days after treating; 18/13° C.
Procedure, shortened: as §5

Row | SMILES | Pre-emergence activity (GR80) ALOMY [g/ha]
22 | CCN(CC)C(=S)n1cnc(S(=O)(=O)C(F)(F)Cl)n1 [Example 94] | 10

system: AGSST (creeping bentgrass); assay: Pre-emergence herbicidal activity, cool season; format: in vivo, Agrostis stolonifera; conditions: GR80 = lowest tested rate (300, 100, 30, 10 g/ha) with 80% or greater inhibition; approx. 14 days after treating; 18/13° C.
Procedure, shortened: as §5

Row | SMILES | Pre-emergence activity (GR80) AGSST [g/ha]
23 | CCN(CC)C(=S)n1cnc(S(=O)(=O)C(F)(F)Cl)n1 [Example 94] | 300
